PubChem BioAssay AID1963433 (Molecular Pharmacology Branch, DTP, NCI, 2024)
pIC50: −log10 of the molar value.

System: 772245-204-R-J1-PDC complex spheroid growth
Test: Anticancer human tumor 772245-204-R-J1-PDC patient-derived rhabdomyosarcoma cell line growth inhibition [Asc]
Settings: for pIC50: curve of first compound; for viability, T/C: stronger effect = lower value
How it was run: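 Tumor cells were grown as multicellular spheroids with stromal HUVEC and mesenchymal stem cells and treated singly or in combination. Concentrations fell in half-log steps from the clinical Cmax, or from 10 microM where none was known.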
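Also: compound exposure lasted seven days.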
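For viability, T/C in this document: 100% = DMSO vehicle control viability.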

**Q.** Which results are given for `CNC(C)C(=O)NC1CN(S(=O)(=O)c2cccc(S(=O)(=O)N3CCC4CCC(C(=O)NC(c5ccccc5)c5ccccc5)N4C(=O)C(NC(=O)C(C)NC)C3)c2)CCC2CCC(C(=O)NC(c3ccccc3)c3ccccc3)N2C1=O` (configuration not stated) + CCN1C(C(=O)NC23CCC(C(=O)O)(CC2)CC3)C(c2cccc(Cl)c2F)C2(C(=O)Nc3cc(Cl)ccc32)C12CCCCC2?
**A.** pIC50 (second compound 0.03 µM): < 6.00; pIC50 (second compound 0.0949 µM): < 6.00; pIC50 (second compound 0.3 µM): < 6.00; pIC50 (second compound 0.949 µM): < 6.00; pIC50 (second compound 3 µM): 6.24; viability, T/C (second compound 0.03 µM, first compound 0.00316 µM): 86.2%; viability, T/C (second compound 0.03 µM, first compound 0.01 µM): 102%; viability, T/C (second compound 0.03 µM, first compound 0.0316 µM): 88%; viability, T/C (second compound 0.03 µM, first compound 0.1 µM): 91.8%; viability, T/C (second compound 0.03 µM, first compound 0.316 µM): 94.9%; viability, T/C (second compound 0.03 µM, first compound 1 µM): 86.8%; viability, T/C (second compound 0.0949 µM, first compound 0.00316 µM): 94.5%; viability, T/C (second compound 0.0949 µM, first compound 0.01 µM): 98.9%; viability, T/C (second compound 0.0949 µM, first compound 0.0316 µM): 75.3%; viability, T/C (second compound 0.0949 µM, first compound 0.1 µM): 89.7%; viability, T/C (second compound 0.0949 µM, first compound 0.316 µM): 79.2%; viability, T/C (second compound 0.0949 µM, first compound 1 µM): 85.3%; viability, T/C (second compound 0.3 µM, first compound 0.00316 µM): 74.8%; viability, T/C (second compound 0.3 µM, first compound 0.01 µM): 83%; viability, T/C (second compound 0.3 µM, first compound 0.0316 µM): 84.6%; viability, T/C (second compound 0.3 µM, first compound 0.1 µM): 68.9%; viability, T/C (second compound 0.3 µM, first compound 0.316 µM): 70.8%; viability, T/C (second compound 0.3 µM, first compound 1 µM): 88.1%; viability, T/C (second compound 0.949 µM, first compound 0.00316 µM): 88.2%; viability, T/C (second compound 0.949 µM, first compound 0.01 µM): 87.4%; viability, T/C (second compound 0.949 µM, first compound 0.0316 µM): 78.8%; viability, T/C (second compound 0.949 µM, first compound 0.1 µM): 75.2%; viability, T/C (second compound 0.949 µM, first compound 0.316 µM): 73%; viability, T/C (second compound 0.949 µM, first compound 1 µM): 62.4%; viability, T/C (second compound 3 µM, first compound 0.00316 µM): 72.8%; viability, T/C (second compound 3 µM, first compound 0.01 µM): 62.2%; viability, T/C (second compound 3 µM, first compound 0.0316 µM): 60.2%; viability, T/C (second compound 3 µM, first compound 0.1 µM): 56.7%; viability, T/C (second compound 3 µM, first compound 0.316 µM): 43.2%; viability, T/C (second compound 3 µM, first compound 1 µM): 53.2%

**Q.** `C#Cc1c(F)ccc2cc(O)cc(-c3ncc4c(N5CC6CCC(C5)N6)nc(OCC56CCCN5CC(F)C6)nc4c3F)c12` (configuration not stated) + CNC(C)C(=O)NC1CN(S(=O)(=O)c2cccc(S(=O)(=O)N3CCC4CCC(C(=O)NC(c5ccccc5)c5ccccc5)N4C(=O)C(NC(=O)C(C)NC)C3)c2)CCC2CCC(C(=O)NC(c3ccccc3)c3ccccc3)N2C1=O was tested. Which pIC50 (second compound 0.00316 µM) did it give?
**A.** < 5.00

**Q.** And the pIC50 (second compound 0.01 µM)?
**A.** < 5.00

**Q.** What about the pIC50 (second compound 0.0316 µM) of the same compound?
**A.** < 5.00

**Q.** And the pIC50 (second compound 0.1 µM)?
**A.** < 5.00

**Q.** And the pIC50 (second compound 0.316 µM)?
**A.** < 5.00

**Q.** What about the pIC50 (second compound 1 µM) of the same compound?
**A.** < 5.00

**Q.** What about the viability, T/C (second compound 0.00316 µM, first compound 0.0316 µM) of the same compound?
**A.** 104%

**Q.** What about the viability, T/C (second compound 0.00316 µM, first compound 0.1 µM) of the same compound?
**A.** 104%

**Q.** And the viability, T/C (second compound 0.00316 µM, first compound 0.316 µM)?
**A.** 92.4%

**Q.** What about the viability, T/C (second compound 0.00316 µM, first compound 1 µM) of the same compound?
**A.** 102%

**Q.** What about the viability, T/C (second compound 0.00316 µM, first compound 3.16 µM) of the same compound?
**A.** 89.2%

**Q.** And the viability, T/C (second compound 0.00316 µM, first compound 10 µM)?
**A.** 79%

**Q.** And the viability, T/C (second compound 0.01 µM, first compound 0.0316 µM)?
**A.** 101%

**Q.** And the viability, T/C (second compound 0.01 µM, first compound 0.1 µM)?
**A.** 88%

**Q.** What about the viability, T/C (second compound 0.01 µM, first compound 0.316 µM) of the same compound?
**A.** 91%

**Q.** What about the viability, T/C (second compound 0.01 µM, first compound 1 µM) of the same compound?
**A.** 104%

**Q.** What about the viability, T/C (second compound 0.01 µM, first compound 3.16 µM) of the same compound?
**A.** 86.5%

**Q.** What about the viability, T/C (second compound 0.01 µM, first compound 10 µM) of the same compound?
**A.** 64.1%

**Q.** And the viability, T/C (second compound 0.0316 µM, first compound 0.0316 µM)?
**A.** 92.7%

**Q.** And the viability, T/C (second compound 0.0316 µM, first compound 0.1 µM)?
**A.** 93.8%

**Q.** And the viability, T/C (second compound 0.0316 µM, first compound 0.316 µM)?
**A.** 89.6%

**Q.** What about the viability, T/C (second compound 0.0316 µM, first compound 1 µM) of the same compound?
**A.** 101%

**Q.** What about the viability, T/C (second compound 0.0316 µM, first compound 3.16 µM) of the same compound?
**A.** 107%

**Q.** And the viability, T/C (second compound 0.0316 µM, first compound 10 µM)?
**A.** 71.8%

**Q.** What about the viability, T/C (second compound 0.1 µM, first compound 0.0316 µM) of the same compound?
**A.** 100%

**Q.** And the viability, T/C (second compound 0.1 µM, first compound 0.1 µM)?
**A.** 93.4%

**Q.** And the viability, T/C (second compound 0.1 µM, first compound 0.316 µM)?
**A.** 95.8%

**Q.** What about the viability, T/C (second compound 0.1 µM, first compound 1 µM) of the same compound?
**A.** 89%

**Q.** And the viability, T/C (second compound 0.1 µM, first compound 3.16 µM)?
**A.** 101%

**Q.** What about the viability, T/C (second compound 0.1 µM, first compound 10 µM) of the same compound?
**A.** 67.8%

**Q.** And the viability, T/C (second compound 0.316 µM, first compound 0.0316 µM)?
**A.** 94.2%

**Q.** And the viability, T/C (second compound 0.316 µM, first compound 0.1 µM)?
**A.** 67.8%

**Q.** And the viability, T/C (second compound 0.316 µM, first compound 0.316 µM)?
**A.** 82%

**Q.** What about the viability, T/C (second compound 0.316 µM, first compound 1 µM) of the same compound?
**A.** 96.5%

**Q.** And the viability, T/C (second compound 0.316 µM, first compound 3.16 µM)?
**A.** 92.4%

**Q.** What about the viability, T/C (second compound 0.316 µM, first compound 10 µM) of the same compound?
**A.** 68%

**Q.** What about the viability, T/C (second compound 1 µM, first compound 0.0316 µM) of the same compound?
**A.** 78.9%

**Q.** And the viability, T/C (second compound 1 µM, first compound 0.1 µM)?
**A.** 96.2%

**Q.** And the viability, T/C (second compound 1 µM, first compound 0.316 µM)?
**A.** 93.3%

**Q.** What about the viability, T/C (second compound 1 µM, first compound 1 µM) of the same compound?
**A.** 83%

**Q.** And the viability, T/C (second compound 1 µM, first compound 3.16 µM)?
**A.** 80%

**Q.** And the viability, T/C (second compound 1 µM, first compound 10 µM)?
**A.** 63.9%

**Q.** Which results are given for `CCN1C(C(=O)NC23CCC(C(=O)O)(CC2)CC3)C(c2cccc(Cl)c2F)C2(C(=O)Nc3cc(Cl)ccc32)C12CCCCC2` (configuration not stated) + Cc1c(S(C)(=O)=O)c(-c2cc(F)cc(N3CCN(c4ccc(NS(=O)(=O)c5ccc(NC(CCN6CCC(C(=O)OCCCP(=O)(O)O)CC6)CSc6ccccc6)c(S(=O)(=O)C(F)(F)F)c5)cc4)CC3)c2)c(-c2ccc(Cl)cc2)n1C(C)C?
**A.** pIC50 (second compound 0.1 µM): 5.89; pIC50 (second compound 0.316 µM): 6.39; pIC50 (second compound 1 µM): 7.59; pIC50 (second compound 3.16 µM): > 8.02; pIC50 (second compound 10 µM): > 8.02; viability, T/C (second compound 0.1 µM, first compound 0.00949 µM): 80%; viability, T/C (second compound 0.1 µM, first compound 0.03 µM): 84.5%; viability, T/C (second compound 0.1 µM, first compound 0.0949 µM): 71.5%; viability, T/C (second compound 0.1 µM, first compound 0.3 µM): 78.3%; viability, T/C (second compound 0.1 µM, first compound 0.949 µM): 57.6%; viability, T/C (second compound 0.1 µM, first compound 3 µM): 29.6%; viability, T/C (second compound 0.316 µM, first compound 0.00949 µM): 57.2%; viability, T/C (second compound 0.316 µM, first compound 0.03 µM): 65.5%; viability, T/C (second compound 0.316 µM, first compound 0.0949 µM): 67.2%; viability, T/C (second compound 0.316 µM, first compound 0.3 µM): 51.9%; viability, T/C (second compound 0.316 µM, first compound 0.949 µM): 36.6%; viability, T/C (second compound 0.316 µM, first compound 3 µM): 13.4%; viability, T/C (second compound 1 µM, first compound 0.00949 µM): 58.8%; viability, T/C (second compound 1 µM, first compound 0.03 µM): 49.2%; viability, T/C (second compound 1 µM, first compound 0.0949 µM): 38%; viability, T/C (second compound 1 µM, first compound 0.3 µM): 29.3%; viability, T/C (second compound 1 µM, first compound 0.949 µM): 25.9%; viability, T/C (second compound 1 µM, first compound 3 µM): 15%; viability, T/C (second compound 3.16 µM, first compound 0.00949 µM): 32.1%; viability, T/C (second compound 3.16 µM, first compound 0.03 µM): 42%; viability, T/C (second compound 3.16 µM, first compound 0.0949 µM): 35.3%; viability, T/C (second compound 3.16 µM, first compound 0.3 µM): 21.6%; viability, T/C (second compound 3.16 µM, first compound 0.949 µM): 17.2%; viability, T/C (second compound 3.16 µM, first compound 3 µM): 9.63%; viability, T/C (second compound 10 µM, first compound 0.00949 µM): 46.4%; viability, T/C (second compound 10 µM, first compound 0.03 µM): 48.7%; viability, T/C (second compound 10 µM, first compound 0.0949 µM): 38.3%; viability, T/C (second compound 10 µM, first compound 0.3 µM): 35.2%; viability, T/C (second compound 10 µM, first compound 0.949 µM): 22.1%; viability, T/C (second compound 10 µM, first compound 3 µM): 4.04%
